Source: US9113629B2, “4-amino-6-(4-substituted-phenyl)-picolinates and 6-amino-2-(4-substituted-phenyl)-pyrimidine-4-carboxylates and their use as herbicides” (DOW AGROSCIENCES LLC, priority 2013, dated 2015)
Like-named read-outs stand apart in the source and are kept apart here.

Key:
[1] = test system: Key Broadleaf Weed and Crop Species; assay: Post-emergent Test II herbicidal activity (Table 5); assay type: in vivo; settings: post-emergence, 336 h, post-emergent, 14 days after application; for pest or weed control at 70 g/ha: 70 g ai/ha; for pest or weed control at 140 g/ha: 140 g ai/ha
How it was run: (§1)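 Plants grown in Metro-Mix 360 (pH 6.0–6.8) in a greenhouse (~15 h photoperiod, 23–29 °C day) to first or second true leaf stage, then sprayed with compound in acetone/DMSO/aqueous crop-oil-surfactant carrier at 187 L/ha by track sprayer. Injury visually scored 0–100% versus untreated plants after 14 d.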

[2] = test system: Key Grass and Sedge Weeds as well as Grass Crops; assay: Post-emergent Test II herbicidal activity (Table 6); assay type: in vivo; settings: post-emergence, 336 h; for pest or weed control at 70 g/ha: application rate 70 g ai/ha; for pest or weed control at 140 g/ha: application rate 140 g ai/ha
How it was run: as §1

[3] = ABUTH: velvetleaf (Abutilon theophrasti), read-out: Visual Growth Reduction (%) 14 Days After Application ABUTH
[4] = AMARE: redroot pigweed (Amaranthus retroflexus), read-out: Visual Growth Reduction (%) 14 Days After Application AMARE
[5] = BRSNN: oilseed-rape, canola (Brassica napus), read-out: Visual Growth Reduction (%) 14 Days After Application BRSNN
[6] = CHEAL: lambsquarters (Chenopodium album), read-out: Visual Growth Reduction (%) 14 Days After Application CHEAL
[7] = EPHHL: wild poinsettia (Euphorbia heterophylla), read-out: Visual Growth Reduction (%) 14 Days After Application EPHHL
[8] = HELAN: sunflower (Helianthus annuus), read-out: Visual Growth Reduction (%) 14 Days After Application HELAN
[9] = VIOTR: wild pansy (Viola tricolor), read-out: Visual Growth Reduction (%) 14 Days After Application VIOTR
[10] = CYPES: yellow nutsedge (Cyperus esculentus), read-out: Visual Growth Reduction (%) 14 Days After Application, CYPES
[11] = DIGSA: crabgrass (Digitaria sanguinalis), read-out: Visual Growth Reduction (%) 14 Days After Application, DIGSA
[12] = ECHCG: barnyardgrass (Echinochloa crus-galli), read-out: Visual Growth Reduction (%) 14 Days After Application, ECHCG
[13] = ORYSA: rice (Oryza sativa), read-out: Visual Growth Reduction (%) 14 Days After Application, ORYSA
[14] = SETFA: giant foxtail (Setaria faberi), read-out: Visual Growth Reduction (%) 14 Days After Application, SETFA
[15] = SORVU: grain sorghum (Sorghum vulgare), read-out: Visual Growth Reduction (%) 14 Days After Application, SORVU
[16] = TRZSS (wheat, Triticum aestivum), read-out: Visual Growth Reduction (%) 14 Days After Application, TRZSS
[17] = ZEAMX: maize, corn (Zea mays), read-out: Visual Growth Reduction (%) 14 Days After Application, ZEAMX
[18] = Triticum aestivum, TRZSS (wheat), read-out: Visual Growth Reduction (%) 14 Days After Application, TRZSS

SMILES	pest or weed control at 70 g/ha [1, 3] [%]	pest or weed control at 140 g/ha [1, 3] [%]	pest or weed control at 70 g/ha [1, 4] [%]	pest or weed control at 140 g/ha [1, 4] [%]	pest or weed control at 70 g/ha [1, 5] [%]	pest or weed control at 140 g/ha [1, 5] [%]	pest or weed control at 70 g/ha [1, 6] [%]	pest or weed control at 140 g/ha [1, 6] [%]	pest or weed control at 70 g/ha [1, 7] [%]	pest or weed control at 140 g/ha [1, 7] [%]	pest or weed control at 70 g/ha [1, 8] [%]	pest or weed control at 140 g/ha [1, 8] [%]	pest or weed control at 70 g/ha [1, 9] [%]	pest or weed control at 140 g/ha [1, 9] [%]	pest or weed control at 70 g/ha [2, 10] [%]	pest or weed control at 140 g/ha [2, 10] [%]	pest or weed control at 70 g/ha [2, 11] [%]	pest or weed control at 140 g/ha [2, 11] [%]	pest or weed control at 70 g/ha [2, 12] [%]	pest or weed control at 140 g/ha [2, 12] [%]	further results
N#Cc1ccc(-c2nc(C(=O)O)c(Cl)c(N)c2F)c(F)c1 [Compound 65, 4-amino-3-chloro-6-(4-cyano-2-fluorophenyl)-5-fluoropicolinic acid]	0 to 29	0 to 29	95 to 100	95 to 100	0 to 29	30 to 44	60 to 74	75 to 84	95 to 100	95 to 100	85 to 94	95 to 100	0 to 29	30 to 44	0 to 29	0 to 29	0 to 29	0 to 29	0 to 29	0 to 29	pest or weed control at 70 g/ha [2, 13]: 0 to 29%; pest or weed control at 140 g/ha [2, 13]: 0 to 29%; pest or weed control at 70 g/ha [2, 14]: 0 to 29%; pest or weed control at 140 g/ha [2, 14]: 0 to 29%; pest or weed control at 70 g/ha [2, 15]: 0 to 29%; pest or weed control at 140 g/ha [2, 15]: 0 to 29%; pest or weed control at 70 g/ha [2, 16]: 0 to 29%; pest or weed control at 140 g/ha [2, 16]: 0 to 29%; pest or weed control at 70 g/ha [2, 17]: 0 to 29%; pest or weed control at 140 g/ha [2, 17]: 0 to 29%
COc1c(N)nc(-c2ccc(Br)c(F)c2)nc1C(=O)O [Compound 113, 6-Amino-2-(4-bromo-3-fluorophenyl)-5-methoxypyrimidine-4-carboxylic acid]	85 to 94	85 to 94	95 to 100	95 to 100	95 to 100	95 to 100	95 to 100	95 to 100	95 to 100	95 to 100	95 to 100	95 to 100	95 to 100	95 to 100	95 to 100	95 to 100	75 to 84	75 to 84	85 to 94	85 to 94	pest or weed control at 70 g/ha [2, 18]: 60 to 74%; pest or weed control at 140 g/ha [2, 18]: 75 to 84%; pest or weed control at 70 g/ha [2, 13]: 30 to 44%; pest or weed control at 140 g/ha [2, 13]: 60 to 74%; pest or weed control at 70 g/ha [2, 14]: 75 to 84%; pest or weed control at 140 g/ha [2, 14]: 75 to 84%; pest or weed control at 70 g/ha [2, 15]: 85 to 94%; pest or weed control at 140 g/ha [2, 15]: 85 to 94%; pest or weed control at 70 g/ha [2, 17]: 85 to 94%; pest or weed control at 140 g/ha [2, 17]: 85 to 94%
COC(=O)c1nc(-c2cc(F)c(C(F)(F)F)cc2F)cc(N)c1Cl [Compound 70, methyl 4-amino-3-chloro-6-(2,5-difluoro-4-(trifluoromethyl)phenyl)picolinate]	95 to 100	95 to 100	95 to 100	95 to 100	75 to 84	85 to 94	95 to 100	95 to 100	95 to 100	95 to 100	85 to 94	95 to 100	60 to 74	75 to 84	95 to 100	95 to 100	85 to 94	95 to 100	85 to 94	95 to 100	pest or weed control at 70 g/ha [2, 13]: 0 to 29%; pest or weed control at 140 g/ha [2, 13]: 0 to 29%; pest or weed control at 70 g/ha [2, 14]: 30 to 44%; pest or weed control at 140 g/ha [2, 14]: 60 to 74%; pest or weed control at 70 g/ha [2, 15]: 85 to 94%; pest or weed control at 140 g/ha [2, 15]: 95 to 100%; pest or weed control at 70 g/ha [2, 16]: 75 to 84%; pest or weed control at 140 g/ha [2, 16]: 85 to 94%; pest or weed control at 70 g/ha [2, 17]: 95 to 100%; pest or weed control at 140 g/ha [2, 17]: 95 to 100%
